Laboratory results from patent US20160060687A1, “METHODS AND COMPOSITIONS TO IDENTIFY, QUANTIFY, AND CHARACTERIZE TARGET ANALYTES AND BINDING MOIETIES” (CDI Laboratories, Inc., priority 2014, published 2016).
Entries after “also recorded” stand apart in the source; their conditions may differ.

Tested on: MPG2
Assay: Protein-DNA DAPPL binding assay on a protein microarray of two human TF proteins and BSA, ligation products detected by PCR
Conditions: array of two human TF proteins and BSA; Sanger sequencing, six of six clones as expected
From the text: A DAPPL approach was applied to establish a comprehensive screen for protein-DNA interactions. As illustrated in FIG. 19A and FIG. […] Meanwhile, a pool of DNA polynucleotides was synthesized that each contains eight random nucleotides with a CpG in the middle and two fixed sequences on both sides. After a double-stranded DNA pool was made with a Klenow reaction, bacterial enzyme SssI is used to methylate the CpG, followed by treatment with a T4 DNA polymerase to generate a 5′-overhang. This pool of 65,536 species was then incubated on the TF array, washed, and the captured DNA fragments were ligated to the address polynucleotides. In each ligated sequence, a mCpG containing 8-mer sequence is now connected to an address oligo representing the TF protein that has captured this 8-mer in the binding assay. Therefore, it is an “all-to-all” screening approach. […] The ligated products were then recovered from the slide and PCR-amplified. […] Bioinformatics analyses were performed to determine whether there was any enrichment of consensus motifs for each TF protein.
After cloning the PCR fragments, Sanger sequencing was performed to determine the PCR-amplified sequences. Six of six sequenced clones gave the expected sequences from the ligation on the array.

M62: methylated DNA motif M62 (SEQ ID NO: 10) used as probe on the TF protein microarray (DNA ATATGCATCG; methylated DNA motif, methylated positions not given here)
capture of the methylated DNA motif by the TF spot (recovery of ligation products by PCR): captures; also recorded: successfully recovered using a PCR reaction only from the expected TF spot
